Reference: patent publication US20260256733A1, “COMPOSITIONS AND METHODS FOR MODULATING STRESS AND USES THEREOF” (BRIGHTSEED, INC., priority 2023, published 2026)

Assays:
mGlu2 [1] = molecular target: T1, mGlu2 (Homo sapiens, UniProt Q14416); experiment: Standardized bioassay protocol, mGluR2 antagonist/NAM assay; assay type: cell-based; details: for Activity Level: 20 μM, mGlu2 activity, control at 100%, greater than control indicates NAM or antagonist; for Bioactivity Class: assay performed at 20 μM
T1 sequence (Q14416 19-872): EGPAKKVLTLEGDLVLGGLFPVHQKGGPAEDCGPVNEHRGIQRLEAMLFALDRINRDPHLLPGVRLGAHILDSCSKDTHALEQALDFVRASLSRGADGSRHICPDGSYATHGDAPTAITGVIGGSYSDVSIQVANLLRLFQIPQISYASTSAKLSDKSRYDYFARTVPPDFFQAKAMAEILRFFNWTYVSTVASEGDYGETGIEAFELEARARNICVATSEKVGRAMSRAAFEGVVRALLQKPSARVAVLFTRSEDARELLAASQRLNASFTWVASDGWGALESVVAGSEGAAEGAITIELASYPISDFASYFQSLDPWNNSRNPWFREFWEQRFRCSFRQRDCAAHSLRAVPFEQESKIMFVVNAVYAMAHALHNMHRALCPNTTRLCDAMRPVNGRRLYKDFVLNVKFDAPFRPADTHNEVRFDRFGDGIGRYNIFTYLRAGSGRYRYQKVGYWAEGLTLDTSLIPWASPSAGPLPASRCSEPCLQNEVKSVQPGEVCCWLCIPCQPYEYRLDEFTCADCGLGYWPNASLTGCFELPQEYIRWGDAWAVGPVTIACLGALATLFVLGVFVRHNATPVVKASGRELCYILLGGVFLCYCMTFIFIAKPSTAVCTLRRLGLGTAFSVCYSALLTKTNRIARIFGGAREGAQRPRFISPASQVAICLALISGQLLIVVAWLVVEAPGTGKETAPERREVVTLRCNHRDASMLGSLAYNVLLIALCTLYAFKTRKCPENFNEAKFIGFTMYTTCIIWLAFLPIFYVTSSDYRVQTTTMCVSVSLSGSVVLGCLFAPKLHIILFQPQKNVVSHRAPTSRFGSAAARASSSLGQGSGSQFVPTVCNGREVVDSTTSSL
Description: (§1) A standardized bioassay protocol was followed as illustrated in FIG. 3. In the standardized bioassay protocol, an assay buffer of HBSS with 1% HEPES was used. Cells were seeded overnight at 10,000 cells/well in 20 μl plating reagent. Controls for the experiment were an agonist of L-glutamic acid (AC156212500), agonist of LY354740 (fisher part #: 32-465-0), antagonist of LY341495 (fisher part #: 12-095-0), PAM of BINA (fisher part #: 40-485-0), and NAM of (decoglurant (fisher part #: 50-203-0742).
(§2) The results are illustrated in Table 7 and FIGS. 4 and 5. FIG. 4 illustrates mGlu2 activity greater than control (dotted red line at 100%) is indicative of an mGlu2 negative allosteric modulator or antagonist. The assay was performed at 20 μM. FIG. 5 illustrates mGlu2 activity less than the control (at 100%) is indicative of a mGlu2 positive allosteric modulator or agonist. The assay was performed at 100 μM.

mGlu2 [2] = molecular target: T1, mGlu2; experiment: Standardized bioassay protocol, mGluR2 agonist/PAM assay; assay type: cell-based; details: for Activity Level: 100 μM, mGlu2 activity, control at 100%, less than control indicates PAM or agonist; for Bioactivity Class: assay performed at 100 μM
Description: as §1, §2

| SMILES | Activity Level (mGlu2 [1]) | Bioactivity Class (mGlu2 [1]) | Activity Level (mGlu2 [2]) | Bioactivity Class (mGlu2 [2]) |
| --- | --- | --- | --- | --- |
| O=C1c2cccc(O)c2C(=O)C2C(O)=CC(CO)=CC12 (stereo not drawn) [Compound 4] | 20 μM/191.200% | Antagonist/NAM | – | – |
| O=C1c2cccc(O)c2C(=O)c2c(O)cccc21 [Compound 6] | 20 μM/142.558% | Antagonist/NAM | – | – |
| CC(=O)Oc1cccc2c1C(=O)c1c(OC(C)=O)cc(C(=O)O)cc1C2=O [Compound 7] | 20 μM/195.543% | Antagonist/NAM | – | – |
| O=C(O)c1cc(O)c2c(c1)C(=O)c1cccc(O)c1C2=O [Compound 8] | 20 μM/749.225% | Antagonist/NAM | – | – |
| COc1cc(O[C@@H]2O[C@H](CO)[C@@H](O)[C@H](O)[C@H]2O)c2c(O)c(C(C)=O)c(C)cc2c1 [Compound 9] | 20 μM/107.501% | Antagonist/NAM | – | – |
| Cn1c(=O)[nH]c(=O)c2[nH]cnc21 [Compound 10] | 20 μM/152.609% | Antagonist/NAM | – | – |
| Cn1cnc2c1c(=O)[nH]c(=O)n2C [Compound 11] | 20 μM/153.003% | Antagonist/NAM | – | – |
| COC(=O)C1OC(=O)c2cc(O)c(O)c(O)c2C1C(CC(=O)O)C(=O)OC1C(COC(=O)c2ccc(O)c(O)c2)OC(OC(=O)c2cc(O)c(O)c(O)c2)C(O)C1OC(=O)c1cc(O)c(O)c(O)c1 (stereo not drawn) [Compound 12] | – | – | 100 μM/25.688% | Agonist/PAM |
| Cc1cc(O)c2c(c1)C(=O)c1cc(O)cc(O)c1C2=O [Compound 13] | – | – | 100 μM/9.870% | Agonist/PAM |
